The record followed here is patent US12029771B2, “Neem for treatment of RLS” (priority 2018, dated 2024).

The test system of this test is symptoms of restless legs syndrome (RLS). Briefly: Treatment of RLS patient, Case No. 1. It is filed as in vivo, human. To be noted: L-Dopa treatment before neem.

Consider `N[C@@H](Cc1ccc(O)c(O)c1)C(=O)O` [L-Dopa], for which the “symptoms of RLS under exposure to L-Dopa” value is recorded as “did not completely cease”.
